Data published in patent US10292986B2, “Methods for treating epithelian mesenchymal transition related diseases” (THE BOARD OF REGENTS OF THE UNIVERSITY OF TEXAS SYSTEM, priority 2015, dated 2019).

What was measured:
hSAECs [1] = assay: TGFβ-induced EMT gene expression in hSAECs by Q-RT-PCR; format: cell-based, human
Procedure: (§1) hSAECs culture and induction of the EMT transformation. An immortalized human small airway epithelial cell (hSAEC) line established by infecting primary hSAECs with human telomerase (hTERT) and cyclin-dependent kinase (CDK)-4 retrovirus constructs was obtained from John Minna, UTSW (Ramirez et al., 2004, Cancer. Res. 64:9027-34). The immortalized hSAECs were grown in SAGM small airway epithelial cell growth medium (Lonza, Walkersville, MD) in a humidified 5% CO2 atmosphere. For induction of the EMT, hSAECs were TGFIβ-stimulated for 15 d (10 ng/ml, PeproTech, Rocky Hill, NJ). The small-molecule IKK inhibitor BMS345541 was purchased from Sigma Aldrich and used at 10 μM (Burke et al., 2003, J. Biol. Chem. 278:1450-56).
(§2) Quantitative real-time reverse transcription-PCR (Q-RT-PCR). Total RNA was extracted using acid guanidinium phenol extraction (Tri Reagent; Sigma). For gene expression analyses, 1 μg of RNA was reverse-transcribed using SuperScript III in a 20-μl reaction mixture. The rest of the procedures were as described previously (Brasier et al., 2011, J. Virol. 85:11752-69). The forward and reverse gene-specific Q-RT-PCR primers are listed in Table 1; relative changes in gene expression were quantified using the ΔΔCT method.

[2] = system: 5′ NFκB site of SNAI1, ZEB1, IL-6, and VIM promoters; assay: XChIP / Q-gPCR recruitment of transcriptional elongation complex to EMT gene promoters in hSAECs; format: cell-based, human
Procedure: Dual cross-link chromatin immunoprecipitation (XChIP). […] Protein-protein cross-linking was first performed with disuccinimidyl glutarate (2mM, Pierce), followed by protein-DNA cross-linking with formaldehyde. […] Immunoprecipitates were collected with 40 μL protein A magnetic beads (Dynal Inc.), washed, and eluted in 250 μL elution buffer for 15 min at room temperature. Samples were de-cross-linked in 0.2 M NaCl at 65 ° C. for 2 h. The precipitated DNA was phenol/chloroform-extracted, precipitated with 100% ethanol, and dried.
Quantitative real time genomic PCR (Q-gPCR). Gene enrichment in XChIP was determined by Q-gPCR using region-specific PCR primers (Table 2). Standard curves were generated using a dilution series of genomic DNA (from 1 ng to 100 ng) for each primer pair. The fold change of DNA in each immunoprecipitate was determined by normalizing the absolute amount to the input DNA reference and calculating the fold change relative to that amount in unstimulated cells.

[3] = cited from earlier work
GFP-Brd4 = conditions: cited from earlier work
hSAECs [4] = assay: TGFβ-induced type II EMT in hSAECs, confocal immunofluorescence microscopy; format: cell-based, human
Procedure: as §1
Immunostaining and Confocal Immunofluorescence Microscopy. hSAECs were incubated±TGFβ (10 ng/mL) for 15 days, re-plated on glass cover slips pretreated with rat tail collagen (Roche Applied Sciences), and fixed with 4% paraformaldehyde in PBS. Afterwards, the fixed cells were stained with Alexa Fluor® 568 phalloidin (Life Technologies) for cytoplasmic distribution of F-actin and also counterstained with 4′, 6-diamidino-2-phenylindole (DAPI) for nuclear staining. The cells were visualized with a Nikon fluorescence confocal microscope at a magnification of 63×.
For immunofluorescence staining, hSAECs were plated on rat tail collagen-treated cover glasses and stimulated for the indicated times. The cells were fixed with 4% paraformaldehyde in PBS and incubated with 0.1 m ammonium chloride for 10 min. Cells were permeabilized with 0.5% Triton-100, followed by incubation in blocking buffer (5% goat serum, 0.1% IGEPAL CA-630, 0.05% NaN3, and 1% BSA) and incubated with anti-SNAIL1, anti-E-Cadherin, and anti-vimentin antibodies (Abs; Abcam, Santa Cruz, Calif.) incubation buffer (0.1% IGEPAL CA-630, 0.05% NaN3, and 2% BSA) overnight at 4 ° C. After washing, cells were stained with Alexa Fluor 488-conjugated goat anti-rabbit IgG (Life Technologies) in incubation buffer for 1 h, then visualized with a Nikon fluorescence confocal microscope, magnification 63×.

C57BL6/J mice [5] = assay: TGFβ-induced pulmonary fibrosis in mice, histology and Ashcroft scoring; format: in vivo
Procedure: (§3) TGFβ-induced pulmonary fibrosis in mice. Male C57BL6/J mice aged 15 weeks were purchased from The Jackson Laboratory (Bar Harbor, Me.) and housed under pathogen-free conditions with food and water ad libitum. Mice were given multiple challenges with 1 μg/mouse of TGFβ every other day for a total of 15 TGFβ treatments. Meanwhile, mice were pre-treated with or without JQ1 (50 mg/kg body weight, i.p.) before TGFβ administration. Ten days after the last TGFβ treatment, bronchoalveolar lavages were obtained for quantifying innate immune cells and measuring cytokine and chemokine secretion; the mice were sacrificed and lung tissues taken for RNA extraction and fixed for histological examination. Whole lungs were inflated under 25 cm H2O pressure with 10% (v/v) neutral buffered formalin through the tracheal cannula and immersed in formalin for at least 24 hours. After being processed into paraffin blocks, the lungs were cut into 5-μm sections and stained either with Masson Trichrome or H&E to assess fibrotic changes in the lungs.
Assessment of levels of pulmonary fibrosis. Pulmonary fibrosis was graded using the Ashcroft scoring method as described (Hubner et al., 2008, Biotechniques. 44:507). In brief, to determine the fibrosis histopathology score for the lung of each mouse, the entire left and right longitudinal lung sections were scored separately (score range, 0 to 9) at ×100 magnification, and the scores were combined (total score range, 0 to 18). […] were intermediate grades assigned on the basis of the predominant histology changes if features described for two distinct grades (as described) were present in the section, to account for the progressive nature of the fibrotic lesion.

C57BL6/J mice [6] = assay: TGFβ-induced pulmonary fibrosis in mice, lung Q-RT-PCR of fibrotic program; format: in vivo; conditions: JQ1 i.p., repetitive TGFβ stimulation
Procedure: as §2
as §3, with “After being processed into paraffin blocks, the lungs were cut into 5-μm sections and stained either with Masson Trichrome or H&E to assess fibrotic changes in the lungs.” left out

Brd4 [7] = target: T1, Brd4 (Homo sapiens, UniProt O60885); conditions: cited from earlier work
Brd4 [8] = target: T1, Brd4; conditions: chronic treatment; cited from earlier work
[9] = ± BMS-345541 10 μM, TGFβ 0 or 15 d
[10] = JQ1 10 μM, TGFβ 10 ng/mL 15 d, hSAECs
[11] = JQ1 10 μM, TGFβ 10 ng/mL, 15 d time course
[12] = JQ1 i.p. (100 mg/kg in FIG. 11 legend, 50 mg/kg in methods), repetitive intranasal TGFβ 1 μg/mouse

Cc1ccc2nc(NCCN)c3ncc(C)n3c2c1 [BMS-345541]
TGFβ-induced enhanced mesenchymal gene expression (hSAECs [1]; IKK kinase inhibitor BMS-345541, hSAECs): inhibited
BRD4 recruitment to EMT gene promoters (SNAI1, ZEB1, IL-6, VIM) [2, 9]: inhibited
CDK9 recruitment to EMT gene promoters (SNAI1, ZEB1, IL-6, VIM) [2, 9]: inhibited
RelA recruitment to EMT gene promoters (SNAI1, ZEB1, IL-6, VIM) [2, 9]: inhibited
phospho-Ser 2 CTD RNA Pol II recruitment to EMT gene promoters (SNAI1, ZEB1, IL-6, VIM) [2, 9]: inhibited

CCC(=O)O[C@]1(C(=O)SCF)[C@H](C)C[C@H]2[C@@H]3C[C@H](F)C4=CC(=O)C=C[C@]4(C)[C@@]3(F)[C@@H](O)C[C@@]21C [Fluticasone propionate]
solubility in 95% ethanol ([3]; 95% ethanol): slightly soluble
solubility in dimethyl sulfoxide ([3]; dimethyl sulfoxide): freely soluble
solubility in dimethylformamide ([3]; dimethylformamide): freely soluble
solubility in methanol ([3]; methanol): slightly soluble
solubility in water ([3]; water): practically insoluble

Cc1sc2c(c1C)C(c1ccc(Cl)cc1)=NC(CC(=O)OC(C)(C)C)c1nnc(C)n1-2 (centres unmarked) [JQ1]
recovery time in FRAP assays using GFP-Brd4 (GFP-Brd4): accelerates
the EMT (Type II EMT) (hSAECs [4]; JQ1 10 μM ± TGFβ 10 ng/mL 15 days, FIG. 9A): blocks
TGFβ-induced acquisition of elongated shape (hSAECs [4]; [10]): blocked
TGFβ-induced stress fiber formation (hSAECs [4]; [10]): blocked
TGFβ-induced upregulation and cytosolic redistribution of SNAI1 (hSAECs [4]; [10]): blocked
TGFβ-induced upregulation and cytosolic redistribution of VIM (hSAECs [4]; [10]): blocked
expression and cellular distribution of CDH1 (hSAECs [4]; [10]): maintained
TGFβ-induced enhanced mesenchymal gene expression (hSAECs [1]; BRD4 inhibitor JQ1, hSAECs): significantly inhibited
TGFβ-induced EMT gene expression in hSAECs (hSAECs [1]; JQ1 10 μM ± TGFβ 10 ng/mL 15 d, FIG. 9B): blocks
CDH1 expression (mRNA) (hSAECs [1]; JQ1 10 μM, TGFβ 10 ng/mL, 15 d, not to levels seen in normal hSAECs): partially maintained
TGFβ-induced expression of FN1 mRNA (hSAECs [1]; [11]): significantly blocked
TGFβ-induced expression of IL-6 mRNA (hSAECs [1]; [11]): significantly blocked
TGFβ-induced expression of SNAI1 mRNA (hSAECs [1]; [11]): significantly blocked
TGFβ-induced expression of VIM mRNA (hSAECs [1]; [11]): significantly blocked
TGFβ-induced expression of ZEB1 mRNA (hSAECs [1]; [11]): significantly blocked
TGFβ-induced airway fibrosis (C57BL6/J mice [5]; [12]): effectively blocked
lung histology (Masson Trichrome) (C57BL6/J mice [5]; [12]): histologically normal
combined Ashcroft score (C57BL6/J mice [5]; JQ1 mice with chronic TGFβ treatment vs chronic TGFβ alone (score 8), total score range 0 to 18): significantly lower
TGFβ-induced pulmonary fibrotic program (mSNAI1, mFN-1, mαSMA, mCol1A1, mIL-6 mRNA in lung) (C57BL6/J mice [6]): significantly inhibited
CDK9 recruitment to SNAI1 ([2]; ± JQ1, TGFβ 0 or 15 days): significantly disrupted
RelA recruitment to SNAI1 ([2]; ± JQ1, TGFβ 0 or 15 days): significantly disrupted
TGFβ-induced recruitment of BRD4 to the 5′NFκB site of SNAI1 ([2]; ± JQ1, TGFβ 0 or 15 days): significantly attenuated
phospho-Ser 2 CTD RNA Pol II recruitment to SNAI1 ([2]; ± JQ1, TGFβ 0 or 15 days): significantly disrupted
recruitment and binding of Brd4 to TNFα and E-selectin promoter elements (Brd4 [7]): inhibits
atherogenic responses and atherosclerosis (Brd4 [8]): attenuates
